Source: the supplement of paper PMC11061612

Tests used:
U-698-M [1] = test: Bliss excess, mean over the matrix (fraction); higher = more synergy; settings: U-[…], B-Cell Non-Hodgkin's Lymphoma
Outline: (§1)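 Cell lines grown in DMEM/F12 or RPMI with 10% FBS were plated in 1536-well plates and held 24 hours at 37°C, 5% CO2 before 72 hours of exposure to two-drug dose matrices, with DMSO typically at 0.2%. CellTiter-Glo 2.0 luminescence gave viability, which was converted to inhibition. Vehicle wells were set to 0 and blank wells to 1. Combination Emax is the second-highest inhibition in the matrix, and Bliss excess is the observed combination effect minus the expected EA + EB − EA·EB, where EA and EB are the single-agent effects.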

U-698-M [2] = test: combination Emax (second highest fraction inhibited in the dose matrix, 72 h); higher = more inhibition; settings: B-Cell Non-Hodgkin's Lymphoma
Outline: as §1

[3] = first compound max 1 µM, partner max 10 µM, 7x7
[4] = first compound max 1 µM, partner max 1 µM, 7x7
[5] = first compound max 1 µM, partner max 3 µM, 7x7
[6] = first compound max 1 µM, partner max 3 µM, 7x7, may be a limit of the assay
[7] = first compound max 1 µM, partner max 1 µM, 7x7, may be a limit of the assay
[8] = first compound max 1 µM, partner max 10 µM, 7x7, may be a limit of the assay
[9] = first compound max 1 µM, partner max 0.3 µM, 7x7
[10] = first compound max 10 µM, partner max 10 µM, 7x7
[11] = first compound max 10 µM, partner max 0.3 µM, 7x7
[12] = first compound max 10 µM, partner max 1 µM
[13] = first compound max 10 µM, partner max 1 µM, 7x7
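Throughout, for Bliss excess, mean over the matrix: after 72 h of two-drug dosing.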

SMILES: COc1nnc2ccc(N3CCC(c4ccc(OCCN5CCN(C)C(=O)[C@H]5C)cc4)CC3)nn12 [AZD5153] + C[C@@H]1COCCN1C2=NC(=NC(=C2)C3(CC3)[S@](=N)(=O)C)C4=C5C=CNC5=NC=C4 [AZD6738]
- Bliss excess (U-698-M [1]; [3]): -0.0616
- combination Emax (U-698-M [2]; [3]): 0.912

SMILES: COc1nnc2ccc(N3CCC(c4ccc(OCCN5CCN(C)C(=O)[C@H]5C)cc4)CC3)nn12 [AZD5153] + Cc1c2c(nn1C)CSCc1cc(n(C)n1)CSc1cc(c3ccccc3c1)OCCCc1c(C(=O)O)n(C)c3c-2c(Cl)ccc13 [AZD5991]
- Bliss excess (U-698-M [1]; [4]): -0.0271
- combination Emax (U-698-M [2]; [4]): 0.998

SMILES: COc1nnc2ccc(N3CCC(c4ccc(OCCN5CCN(C)C(=O)[C@H]5C)cc4)CC3)nn12 [AZD5153] + Cn1cnc2c(F)c(Nc3ccc(Br)cc3Cl)c(C(=O)NOCCO)cc21 [Selumetinib]
- Bliss excess (U-698-M [1]; [3]): -0.0573
- combination Emax (U-698-M [2]; [3]): 0.622

SMILES: Cc1c2c(nn1C)CSCc1cc(n(C)n1)CSc1cc(c3ccccc3c1)OCCCc1c(C(=O)O)n(C)c3c-2c(Cl)ccc13 [AZD5991] + C1CN(CCC1(C(=O)N[C@@H](CCO)C2=CC=C(C=C2)Cl)N)C3=NC=NC4=C3C=CN4 [Capivasertib]
- Bliss excess (U-698-M [1]; [5]): -0.0016
- combination Emax (U-698-M [2]; [6]): 1

SMILES: Cc1c2c(nn1C)CSCc1cc(n(C)n1)CSc1cc(c3ccccc3c1)OCCCc1c(C(=O)O)n(C)c3c-2c(Cl)ccc13 [AZD5991] + CC1(C)CCC(CN2CCN(c3ccc(C(=O)NS(=O)(=O)c4ccc(NCC5CCOCC5)c([N+](=O)[O-])c4)c(Oc4cnc5[nH]ccc5c4)c3)CC2)=C(c2ccc(Cl)cc2)C1 [Venetoclax]
- Bliss excess (U-698-M [1]; [4]): -0.0069
- combination Emax (U-698-M [2]; [7]): 1

SMILES: Cc1c2c(nn1C)CSCc1cc(n(C)n1)CSc1cc(c3ccccc3c1)OCCCc1c(C(=O)O)n(C)c3c-2c(Cl)ccc13 [AZD5991] + CC(=O)O[C@H]1C(=O)[C@@]2(C)[C@H]([C@H](OC(=O)c3ccccc3)[C@]3(O)C[C@H](OC(=O)[C@H](O)[C@@H](NC(=O)c4ccccc4)c4ccccc4)C(C)=C1C3(C)C)[C@]1(OC(C)=O)CO[C@@H]1C[C@@H]2O [Paclitaxel]
- Bliss excess (U-698-M [1]; [5]): -0.0123
- combination Emax (U-698-M [2]; [6]): 1

SMILES: Cc1c2c(nn1C)CSCc1cc(n(C)n1)CSc1cc(c3ccccc3c1)OCCCc1c(C(=O)O)n(C)c3c-2c(Cl)ccc13 [AZD5991] + CCN(CCO)CCCOc1ccc2c(Nc3cc(CC(=O)Nc4cccc(F)c4)[nH]n3)ncnc2c1 [AZD2811]
- Bliss excess (U-698-M [1]; [4]): 0.0024
- combination Emax (U-698-M [2]; [7]): 1

SMILES: Cc1c2c(nn1C)CSCc1cc(n(C)n1)CSc1cc(c3ccccc3c1)OCCCc1c(C(=O)O)n(C)c3c-2c(Cl)ccc13 [AZD5991] + CN(C)CCCOc1ccc(-c2ccc3ncc4c(c3c2)n(C2CCOCC2)c(=O)n4C)cn1 [AZD0156]
- Bliss excess (U-698-M [1]; [4]): 0.0036
- combination Emax (U-698-M [2]; [7]): 1

SMILES: Cc1c2c(nn1C)CSCc1cc(n(C)n1)CSc1cc(c3ccccc3c1)OCCCc1c(C(=O)O)n(C)c3c-2c(Cl)ccc13 [AZD5991] + CS(=O)(=O)CCNCc1ccc(-c2ccc3ncnc(Nc4ccc(OCc5cccc(F)c5)c(Cl)c4)c3c2)o1 [Lapatinib]
- Bliss excess (U-698-M [1]; [3]): 0.0295
- combination Emax (U-698-M [2]; [3]): 0.992

SMILES: Cc1c2c(nn1C)CSCc1cc(n(C)n1)CSc1cc(c3ccccc3c1)OCCCc1c(C(=O)O)n(C)c3c-2c(Cl)ccc13 [AZD5991] + C[C@@H]1COCCN1C2=NC(=NC(=C2)C3(CC3)[S@](=N)(=O)C)C4=C5C=CNC5=NC=C4 [AZD6738]
- Bliss excess (U-698-M [1]; [3]): -0.0194
- combination Emax (U-698-M [2]; [8]): 1

SMILES: Cc1c2c(nn1C)CSCc1cc(n(C)n1)CSc1cc(c3ccccc3c1)OCCCc1c(C(=O)O)n(C)c3c-2c(Cl)ccc13 [AZD5991] + C[C@@H](Nc1cc(F)cc(F)c1)c1cc(C(=O)N(C)C)cc2c(=O)cc(N3CCOCC3)oc12 [AZD8186]
- Bliss excess (U-698-M [1]; [5]): -0.0258
- combination Emax (U-698-M [2]; [6]): 1

SMILES: Cc1c2c(nn1C)CSCc1cc(n(C)n1)CSc1cc(c3ccccc3c1)OCCCc1c(C(=O)O)n(C)c3c-2c(Cl)ccc13 [AZD5991] + Cc1cc2ncnn2cc1Nc1ncc2c(n1)n(C1CCOCC1)c(=O)n2C [AZD7648]
- Bliss excess (U-698-M [1]; [3]): 0.0183
- combination Emax (U-698-M [2]; [8]): 1

SMILES: Cc1c2c(nn1C)CSCc1cc(n(C)n1)CSc1cc(c3ccccc3c1)OCCCc1c(C(=O)O)n(C)c3c-2c(Cl)ccc13 [AZD5991] + Cn1cnc2c(F)c(Nc3ccc(Br)cc3Cl)c(C(=O)NOCCO)cc21 [Selumetinib]
- Bliss excess (U-698-M [1]; [5]): -0.0034
- combination Emax (U-698-M [2]; [6]): 1

SMILES: Cc1c2c(nn1C)CSCc1cc(n(C)n1)CSc1cc(c3ccccc3c1)OCCCc1c(C(=O)O)n(C)c3c-2c(Cl)ccc13 [AZD5991] + Nc1ccn([C@@H]2O[C@H](CO)[C@@H](O)C2(F)F)c(=O)n1 [Gemcitabine]
- Bliss excess (U-698-M [1]; [9]): 0.0211
- combination Emax (U-698-M [2]; [9]): 0.966

SMILES: C[C@@H]1COCCN1c1cc(C2([S@](C)(=N)=O)CC2)nc(-c2ccnc3[nH]ccc23)n1 [AZD6738] + C1CC(C1)(C(=O)[O-])C(=O)[O-].N.N.[Pt+2] [Carboplatin]
- Bliss excess (U-698-M [1]; [10]): -0.0625
- combination Emax (U-698-M [2]; [10]): 0.84

SMILES: C[C@@H]1COCCN1c1cc(C2([S@](C)(=N)=O)CC2)nc(-c2ccnc3[nH]ccc23)n1 [AZD6738] + Nc1ccn([C@@H]2O[C@H](CO)[C@@H](O)C2(F)F)c(=O)n1 [Gemcitabine]
- Bliss excess (U-698-M [1]; [11]): 0.0526
- combination Emax (U-698-M [2]; [11]): 0.871

SMILES: C[C@@H]1COCCN1c1cc(C2([S@](C)(=N)=O)CC2)nc(-c2ccnc3[nH]ccc23)n1 [AZD6738] + O=C(c1cc(Cc2n[nH]c(=O)c3ccccc23)ccc1F)N1CCN(C(=O)C2CC2)CC1 [Olaparib]
- Bliss excess (U-698-M [1]; [10]): -0.0503
- combination Emax (U-698-M [2]; [10]): 0.934

SMILES: Cc1cc2ncnn2cc1Nc1ncc2c(n1)n(C1CCOCC1)c(=O)n2C [AZD7648] + C=CCn1c(=O)c2cnc(Nc3ccc(N4CCN(C)CC4)cc3)nc2n1-c1cccc(C(C)(C)O)n1 [AZD1775]
- Bliss excess (U-698-M [1]; [12]): -0.0156
- combination Emax (U-698-M [2]; [12]): 0.971

SMILES: Cc1cc2ncnn2cc1Nc1ncc2c(n1)n(C1CCOCC1)c(=O)n2C [AZD7648] + CCN(CCO)CCCOc1ccc2c(Nc3cc(CC(=O)Nc4cccc(F)c4)[nH]n3)ncnc2c1 [AZD2811]
- Bliss excess (U-698-M [1]; [13]): 0.0631
- combination Emax (U-698-M [2]; [13]): 0.444

SMILES: Cc1cc2ncnn2cc1Nc1ncc2c(n1)n(C1CCOCC1)c(=O)n2C [AZD7648] + CN(C)CCCOc1ccc(-c2ccc3ncc4c(c3c2)n(C2CCOCC2)c(=O)n4C)cn1 [AZD0156]
- Bliss excess (U-698-M [1]; [13]): 0.0015
- combination Emax (U-698-M [2]; [13]): 0.488

SMILES: Cc1cc2ncnn2cc1Nc1ncc2c(n1)n(C1CCOCC1)c(=O)n2C [AZD7648] + COc1cc([C@@H]2c3cc4c(cc3[C@@H](O[C@@H]3O[C@@H]5CO[C@@H](C)O[C@H]5[C@H](O)[C@H]3O)[C@H]3COC(=O)[C@H]23)OCO4)cc(OC)c1O [Etoposide]
- Bliss excess (U-698-M [1]; [10]): 0.0866
- combination Emax (U-698-M [2]; [10]): 0.823

SMILES: Cc1cc2ncnn2cc1Nc1ncc2c(n1)n(C1CCOCC1)c(=O)n2C [AZD7648] + C[C@@H]1COCCN1C2=NC(=NC(=C2)C3(CC3)[S@](=N)(=O)C)C4=C5C=CNC5=NC=C4 [AZD6738]
- Bliss excess (U-698-M [1]; [10]): -0.0006
- combination Emax (U-698-M [2]; [10]): 0.939

SMILES: Cc1cc2ncnn2cc1Nc1ncc2c(n1)n(C1CCOCC1)c(=O)n2C [AZD7648] + O=C(c1cc(Cc2n[nH]c(=O)c3ccccc23)ccc1F)N1CCN(C(=O)C2CC2)CC1 [Olaparib]
- Bliss excess (U-698-M [1]; [10]): -0.0409
- combination Emax (U-698-M [2]; [10]): 0.343

SMILES: C[C@@H](Nc1cc(F)cc(F)c1)c1cc(C(=O)N(C)C)cc2c(=O)cc(N3CCOCC3)oc12 [AZD8186] + C1CN(CCC1(C(=O)N[C@@H](CCO)C2=CC=C(C=C2)Cl)N)C3=NC=NC4=C3C=CN4 [AZD5363]
- Bliss excess (U-698-M [1]; [10]): -0.0592
- combination Emax (U-698-M [2]; [10]): 0.349

SMILES: C[C@@H](Nc1cc(F)cc(F)c1)c1cc(C(=O)N(C)C)cc2c(=O)cc(N3CCOCC3)oc12 [AZD8186] + CC(=O)c1c(C)c2cnc(Nc3ccc(N4CCNCC4)cn3)nc2n(C2CCCC2)c1=O [Palbociclib]
- Bliss excess (U-698-M [1]; [10]): -0.0019
- combination Emax (U-698-M [2]; [10]): 0.499

SMILES: NC1(C(=O)N[C@@H](CCO)c2ccc(Cl)cc2)CCN(c2ncnc3[nH]ccc23)CC1 [Capivasertib] + CC(=O)c1c(C)c2cnc(Nc3ccc(N4CCNCC4)cn3)nc2n(C2CCCC2)c1=O [Palbociclib]
- Bliss excess (U-698-M [1]; [10]): 0.0018
- combination Emax (U-698-M [2]; [10]): 0.532

SMILES: NC1(C(=O)N[C@@H](CCO)c2ccc(Cl)cc2)CCN(c2ncnc3[nH]ccc23)CC1 [Capivasertib] + CC(C)n1c(=O)n(C)c2cnc3cc(F)c(-c4ccc(OCCCN5CCCCC5)nc4)cc3c21 [AZD1390]
- Bliss excess (U-698-M [1]; [11]): 0.0024
- combination Emax (U-698-M [2]; [11]): 0.507

SMILES: NC1(C(=O)N[C@@H](CCO)c2ccc(Cl)cc2)CCN(c2ncnc3[nH]ccc23)CC1 [Capivasertib] + CCN(CCO)CCCOc1ccc2c(Nc3cc(CC(=O)Nc4cccc(F)c4)[nH]n3)ncnc2c1 [AZD2811]
- Bliss excess (U-698-M [1]; [13]): -0.0021
- combination Emax (U-698-M [2]; [13]): 0.5

SMILES: NC1(C(=O)N[C@@H](CCO)c2ccc(Cl)cc2)CCN(c2ncnc3[nH]ccc23)CC1 [Capivasertib] + COc1nnc2ccc(N3CCC(c4ccc(OCCN5CCN(C)C(=O)[C@H]5C)cc4)CC3)nn12 [AZD5153]
- Bliss excess (U-698-M [1]; [13]): -0.0646
- combination Emax (U-698-M [2]; [13]): 0.768

SMILES: NC1(C(=O)N[C@@H](CCO)c2ccc(Cl)cc2)CCN(c2ncnc3[nH]ccc23)CC1 [Capivasertib] + C[C@@H]1COCCN1C2=NC(=NC(=C2)C3(CC3)[S@](=N)(=O)C)C4=C5C=CNC5=NC=C4 [AZD6738]
- Bliss excess (U-698-M [1]; [10]): -0.0275
- combination Emax (U-698-M [2]; [10]): 0.909

SMILES: NC1(C(=O)N[C@@H](CCO)c2ccc(Cl)cc2)CCN(c2ncnc3[nH]ccc23)CC1 [Capivasertib] + Cn1cnc2c(F)c(Nc3ccc(Br)cc3Cl)c(C(=O)NOCCO)cc21 [Selumetinib]
- Bliss excess (U-698-M [1]; [10]): -0.0253
- combination Emax (U-698-M [2]; [10]): 0.45
